Columns and labels:
[1] = patients treated with second-generation antipsychotics; cited from earlier work
[2] = administered into the parabrachial nucleus in the brainstem; cited from earlier work
[3] = Percentage weight change in antipsychotic-treated schizophrenia patients; type: in vivo, human; conditions: Sample B (N = 56), SCZ patients of European ancestry receiving clozapine; study duration 6.00 ± 0.00 weeks; mean ± SD
Description: In total, 160 participants with psychotic symptoms were included in this study. Diagnosis for schizophrenia (SCZ) was assessed by the Structured Diagnostic Interviews for DSM-IIIR and/or DSM-IV diagnoses (SCID-I,^31,32), except for sample A where diagnoses were based on an interview assessing both DSM and ICD diagnoses. The inclusion criteria for adult probands were DSM-IIIR/IV diagnosis of SCZ or schizoaffective disorder, with psychotic symptoms. A written informed consent was obtained after the complete study description was given to each participant, and the study has been approved by the Research Ethics Board.
Sample A (N=93) was collected at the Charité University Medicine, Berlin, Germany. […] Clozapine serum levels were monitored during the course of the treatment to ascertain compliance. Clinical response was assessed after 6 weeks using the Brief Psychiatric Rating Scale (BPRS)^35. […]
Statistical analyses of demographic variables, which included sex, age at recruitment, and duration of treatment, were performed across samples using Fisher's Exact tests, analysis of variance, or Kruskal-Wallis tests (Table 1). […] We also analyzed the ‘percent weight change’ variable in a meta-analytic approach to take into account heterogeneity across the three patient sample groups using STATA version 8 (e.g.,^48). […] Linkage disequilibrium and r^2 between marker pairs as determined by Haploview 4.1^49. […]

In the case of Cc1cc2c(s1)Nc1ccccc1N=C2N1CCN(C)CC1 [olanzapine], the “treated patients experiencing significant weight gain” value [1] is listed as “about 30%”.
In the case of Cc1ncc2n1-c1ccc(Cl)cc1C(c1ccccc1F)=NC2 [midazolam], the food intake [2] is listed as “increased food intake”.
In the case of CN1CCN(C2=Nc3cc(Cl)ccc3Nc3ccccc32)CC1 [clozapine], the Percentage weight change [3] is reported as 3.88 ± 5.770.
For Cn1ncnc1COc1nn2c(-c3cc(F)ccc3F)nnc2cc1C(C)(C)C [L-838417], the food intake [2] is given as “increased food intake”.
